Experimental data published in paper PMC6813295, “A tumour-selective cascade activatable self-detained system for drug delivery and cancer imaging” (Nature Communications, 2019).
Where a SMILES comes first, the peptide text is derived from it. The star is where a group is joined. X1 = CC1(C)C(=CC=C2CCCC(C=CC3=[N+](CCCCCC(=O)O)c4ccccc4C3(C)C)=C2*)N(CCCCCC(=O)O)c2ccccc21

Tests used:
H460 cells [1] = type: cell-based, human; conditions: 50 μM for 6, 12, 24 h (flow cytometry), 1–100 μM 24 h (CCK-8)
Experimental: lysed in an ice bath at 1℃, 16000g for 15 minutes, the supernatant was transferred to a pre-cooled centrifuge tube in an ice bath. For each group, 20 μM (final concentration) Ac-DEVD-AMC and 100μl cell lysate were added to 1 ml Protease Assay Buffer [20 mM HEPES (pH 7.5), 10% glycerol, 2 mM DTT]. The reaction mixtures were incubated for 1 hour at 37 °C. The AMC released from Ac-DEVD-AMC was measured using a spectrofluorometer with an excitation wavelength of 380 nm and an emission wavelength range of 400-550 nm.
Flow cytometry analysis. A density of 1 × 10^5 H460 cells per well were seeded in the 6-well plates in 1640 medium which contains 10% fetal bovine serum and 1% penicillin–streptomycin, then cultured at 37 °C in a humidified atmosphere with 5% CO 2 for 16 h. Then molecules 1, 2 and 3 (50 μM) were added to each well, and the cells were incubated for additional 6 h, 12 h and 24 h, respectively. The apoptosis of the collected cells stained by Annexin V -FITC and PI (propidium iodide) was studied by […]
Cell viability assays . CCK-8 (cell counting kit-8) assay was carried out to investigate the cell viability.
H460 cells were utilized to evaluate the cytotoxicity of molecules 1, 2 and 3 by the CCK-8 assay.
Molecules 1, 2 and 3 were dispersed in 1640 medium with different concentration s such as 1, 5, 10, 30, 60 and 100 μM. The cells with the density of 5 × 10^4 cells per well were seeded in the 96 -well plates in 1640 medium containing 10% fetal bovine serum and 1% penicillin –streptomycin, then cultured at 37 °C in a humidified atmosphere with 5% CO 2 for 16 h. […]
Microplate reader was used to measure the UV -Vis absorptions of sample wells (A sample), Ablack and control wells (A control) at a test wavelength of 450 nm and a reference wavelength of 690 nm, […]
Blood circulation. […] The supernatant of the blood samples was collected by centrifugation at 10 000 rpm for 10 min , and the content of compound 1, 2 and 3 in the supernatant w ere determined using fluorescence spectrophotometric measurement. […]
3 h. […] Morphologies of liposomes were measured by Tecnai G20 electron microscope. […]

H460 cells [2] = experiment: Flow cytometry labelling ratio of subcultured cells; type: cell-based, human; conditions: 50 μM, 37 °C, 2 h; for labelling ratio of H460 cells at the third generation: subcultured at 24 h interval
Experimental: Supplementary Figure 24∣Flow cytometry histograms of H460 cells treated with molecule 1, 2 and
3 (50 μM) at 37 °C for 2 h, respectively, and then subcultured for designated generations (a 24 h
interval). The untreated H460 cells were used as the control group.
(1 picture or pasted object on this page, not shown here)

[3] = test system: H460 tumour-bearing nude mice; experiment: Pharmacokinetic parameters in tumour (DAS2.0); type: in vivo, mouse; conditions: IV 14 mg/kg; for AUC0→t / AUC0→∞ / CL / MRT(0-t), mean retention time / Tmax / t1/2β, elimination half-life: in tumour, means ± SD n = 3; for AUC0→t: 0–48 h
Experimental: Animal experiments were performed in accordance with the Guide for the Care and Use of Laboratory Animals and approved by the Institutional Animal Care and Use Committee (IACUC) of the National Center for Nanoscience and Technology (NCNST), China. Female Balb/c nude mice (6–8 weeks, 18–22 g) were purchased from Vital River Laboratory Animal Technology Co. Ltd. H460 cells were subcutaneously implanted into these mice on the right flank. Then the mice were randomly grouped (n = 3). When the tumour grew to a single aspect of about 0.5 cm, we injected the molecules 1, 2 and 3 intravenously in the same dose of 14 mg/kg in PBS solution, respectively. Fluorescence images were measured by a Maestro II in vivo imaging system (CRi) at 1, 2, 4, 6, 8, 12, 24, 48, 72, 96 and 120 h post injection. Further, tumours and other major organs (i.e., heart, liver, spleen, lung and kidney) were collected for ex vivo fluorescence imaging at 48 h post injection. The organ biodistribution of the 1, 2 and 3 was examined using H460 xenografts mice. The mice were sacrificed at 2, 4, 8, 12, 24 or 48 h post injection. Finally, all the major organs and tumour were collected, weighed, and homogenized (0.3 mL of lysis buffer per 100 mg of tissues). The homogeneous tissue solutions were obtained for fluorescence imaging by IVIS Spectrum CT. Known concentrations of compound 1, 2 or 3 are used to make the standard curve (concentration from 2.8 to 25.2 μg/mL), the “Predicted R-Squared” value of 0.99. Then we utilized this standard curve to measure the molecule content in each tissue. In addition, EJ xenograft tumour mice model was built, as above described, to validate the generality of the strategy.
Supplementary Table 1︱Pharmacokinetic parameters of intravenously-administered 1, 2 and 3 in […]
Data are presented as means ± SD (n = 3). t1/2β, elimination half -life; CL, plasma clearance; Cmax, maximum concentration; Tmax, peak time ; MRT: mean retention time; AUC(0 -t), area under the 1, 2 and 3 concentration-time curve from time zero to the last quantifiable value; AUC(0 -∞), area und er the 1, 2 and 3 concentration -time curve from time zero to infinity, which represents the total drug exposure over time. h, hour(s).

Compound | apoptotic cell death (flow cytometry and cell viability assays) (H460 cells [1]) | labelling ratio of H460 cells at the first generation (H460 cells [2]; compared to untreated cells) | labelling ratio of H460 cells at the third generation (H460 cells [2]) | AUC0–48h in tumour of molecule 1 relative to 2 [3] | AUC0–48h in tumour of molecule 1 relative to 3 [3] | AUC0→t [3] | AUC0→∞ [3] | CL [3] | MRT(0-t), mean retention time [3] | Tmax [3] | t1/2β, elimination half-life [3]
CC[C@H](C)[C@H](NC(=O)[C@@H]1CCCN1C(=O)[C@@H](NC(=O)[C@H](C)N)C(C)C)C(=O)N[C@@H](C)C(=O)N[C@@H](CCC(N)=O)C(=O)N[C@@H](CCCCN)C(=O)N[C@@H](CC(=O)O)C(=O)N[C@@H](CCC(=O)O)C(=O)N[C@H](C(=O)N[C@@H](CC(=O)O)C(=O)N[C@@H](CCCCN)C(=O)N[C@@H](CC(C)C)C(=O)N[C@H](C(=O)N[C@@H](Cc1ccccc1)C(=O)N[C@@H](Cc1ccccc1)C(=O)N[C@@H](C)C(=O)N[C@@H](CCC(=O)O)C(=O)N[C@@H](CSC1=C(C=CC2=[N+](CCCCCC(=O)O)c3ccccc3C2(C)C)CCCC1=CC=C1N(CCCCCC(=O)O)c2ccccc2C1(C)C)C(=O)NCC(=O)O)C(C)C)C(C)C [molecule 1] (H-AVPIAQKDEVDKLVFFAEC(X1)G-OH) | No apoptosis was observed | 100% | above 16.4% | six-fold | three-fold | 71.2 ± 4.7 mg·h/g | 145.9 ± 1.0 mg·h/g | 1.3 ± 0.5 mL/min/kg | 23.4 ± 0.2 h | 4.0 ± 0 h | 69.3 ± 0 h
CSCC[C@H](N)C(=O)N[C@@H](CC(=O)O)C(=O)N[C@@H](CCC(=O)O)C(=O)N[C@@H](CCCCN)C(=O)N[C@@H](C)C(=O)N[C@@H](CCC(N)=O)C(=O)N[C@@H](CCCCN)C(=O)N[C@@H](CC(=O)O)C(=O)N[C@@H](CCC(=O)O)C(=O)N[C@H](C(=O)N[C@@H](CC(=O)O)C(=O)N[C@@H](CCCCN)C(=O)N[C@@H](CC(C)C)C(=O)N[C@H](C(=O)N[C@@H](Cc1ccccc1)C(=O)N[C@@H](Cc1ccccc1)C(=O)N[C@@H](C)C(=O)N[C@@H](CCC(=O)O)C(=O)N[C@@H](CSC1=C(C=CC2=[N+](CCCCCC(=O)O)c3ccccc3C2(C)C)CCCC1=CC=C1N(CCCCCC(=O)O)c2ccccc2C1(C)C)C(=O)NCC(=O)O)C(C)C)C(C)C [molecule 2] (H-MDEKAQKDEVDKLVFFAEC(X1)G-OH; N-terminus assumed) | No apoptosis was observed | – | 6.83% | – | – | 12.2 ± 1.9 mg·h/g | 14.1 ± 2.2 mg·h/g | 16.7 ± 2.5 mL/min/kg | 15.2 ± 4.5 h | 3.3 ± 1.2 h | 10.0 ± 1.9 h
CC[C@H](C)[C@H](NC(=O)[C@@H]1CCCN1C(=O)[C@@H](NC(=O)[C@H](C)N)C(C)C)C(=O)N[C@@H](C)C(=O)N[C@@H](CCC(N)=O)C(=O)N[C@@H](CCCCN)C(=O)N[C@@H](CC(=O)O)C(=O)N[C@@H](CCC(=O)O)C(=O)N[C@H](C(=O)N[C@@H](CC(=O)O)C(=O)N[C@@H](CCC(=O)O)C(=O)N[C@@H](CSC1=C(C=CC2=[N+](CCCCCC(=O)O)c3ccccc3C2(C)C)CCCC1=CC=C1N(CCCCCC(=O)O)c2ccccc2C1(C)C)C(=O)NCC(=O)O)C(C)C [molecule 3] (H-AVPIAQKDEVDEC(X1)G-OH; N-terminus assumed) | No apoptosis was observed | – | 3.89% | – | – | 26.6 ± 8.9 mg·h/g | 34.6 ± 12.2 mg·h/g | 7.33 ± 2.5 mL/min/kg | 10.7 ± 1.8 h | 6.7 ± 2.3 h | 10.6 ± 2.8 h
